How the values were obtained:
[1] = tested on: HEK293 cells stably transfected with CMKLR1-eYFP; assay: Resazurin-based cell viability assay, HEK293-CMKLR1; conditions: Homo sapiens; HEK293-CMKLR1, 72 h; read-out: IC50 (toxicity)
Method: (§1) HEK293 cells stably transfected with CMKLR1-eYFP, empty HEK293 cells (15,000 cells in 100 µL suspension/well), or HMEC-1 cells (5000 cells in 100 µL suspension/well) in their respective cell culture media were seeded in 96 well plates (coated with poly D-lysine for HEK cells) and incubated at standard conditions overnight. Afterward, cells were incubated with peptides or MTX dissolved in cell culture media, and a medium without peptides was used as a control. […] Ethanol or media was removed and a 50 µL resazurin-based in vitro toxicology assay kit (Sigma-Aldrich, St. Lous, MO, USA) in cell culture media (1:10) was added to each well. After 1 h incubation time, the conversion of the resazurin was detected by measuring the fluorescence intensity at λem = 590 nm. All experiments were performed in duplicates and each experiment was repeated at least three times. Nonlinear regression was calculated using GraphPad Prism 5, curves were normalized to untreated and ethanol-treated cells.

[2] = tested on: untransfected HEK293 cells; assay: Resazurin-based cell viability assay, untransfected HEK293; conditions: Homo sapiens; HEK293 cells devoid of CMKLR1, 72 h; read-out: IC50 (toxicity)
Method: as §1

HMEC-1 cells = assay: Resazurin-based cell viability assay, HMEC-1; conditions: Homo sapiens; HMEC-1 cells endogenously expressing CMKLR1, 72 h; read-out: IC50 (toxicity)
Method: as §1

Structure (SMILES): CN(Cc1cnc2nc(N)nc(N)c2n1)c1ccc(C(=O)N[C@@H](CCC(=O)O)C(=O)O)cc1 [MTX, Methotrexate, reference compound]
- IC50 [1]: 471 nM
- IC50 [2]: 373 nM
- IC50 (HMEC-1 cells): 10000 nM
